According to ChEMBL document CHEMBL1126397, “Synthesis of acid stable 5-o-fluoromethyl phosphonates of nucleosides. Evaluation as inhibitors of reverse transcriptase” (Bioorg Med Chem Lett, 1992):
≈ marks a conversion by molar mass, not a printed value.

Key:
[1] = target: T1, Human immunodeficiency virus type 1 reverse transcriptase (Human immunodeficiency virus 1, UniProt Q72547); test: The compound was evaluated as inhibitor of recombinant HIV-l reverse transcriptase
[2] = target: T2, Avian myoblastosis virus polyprotein II (Avian myeloblastosis virus, UniProt Q86831); test: Inhibitor of avian myeloblastosis virus AMV reverse transcriptase
T2 sequence (Q86831 whole entry): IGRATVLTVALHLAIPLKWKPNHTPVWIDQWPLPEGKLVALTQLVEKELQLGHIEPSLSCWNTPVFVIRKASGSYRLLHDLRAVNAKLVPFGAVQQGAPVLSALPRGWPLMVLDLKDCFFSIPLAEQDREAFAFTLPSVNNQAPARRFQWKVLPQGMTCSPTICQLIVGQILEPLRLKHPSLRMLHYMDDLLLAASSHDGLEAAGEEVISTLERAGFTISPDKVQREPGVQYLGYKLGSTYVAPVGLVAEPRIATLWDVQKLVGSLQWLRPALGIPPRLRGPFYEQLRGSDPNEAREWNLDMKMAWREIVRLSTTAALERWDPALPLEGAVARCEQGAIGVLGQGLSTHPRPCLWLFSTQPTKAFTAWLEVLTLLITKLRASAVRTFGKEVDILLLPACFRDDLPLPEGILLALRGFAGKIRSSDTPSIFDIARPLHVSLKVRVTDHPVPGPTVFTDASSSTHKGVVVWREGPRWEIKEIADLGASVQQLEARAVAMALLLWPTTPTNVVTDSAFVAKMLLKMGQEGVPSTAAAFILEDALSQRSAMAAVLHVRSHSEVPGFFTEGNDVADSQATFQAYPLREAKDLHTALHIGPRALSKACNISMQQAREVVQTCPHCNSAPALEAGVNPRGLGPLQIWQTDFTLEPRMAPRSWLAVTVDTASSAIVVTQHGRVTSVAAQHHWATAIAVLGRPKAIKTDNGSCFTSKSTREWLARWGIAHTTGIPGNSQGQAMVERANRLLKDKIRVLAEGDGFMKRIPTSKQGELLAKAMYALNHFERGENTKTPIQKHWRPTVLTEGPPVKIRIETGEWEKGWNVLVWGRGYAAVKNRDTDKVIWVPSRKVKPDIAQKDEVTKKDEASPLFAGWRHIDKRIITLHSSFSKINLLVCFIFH

[3] = system: Avian myeloblastosis virus; test: The compound was evaluated as inhibitor of avian myeloblastosis virus (AMV) reverse transcriptase; assay type: functional, organism-based
[4] = system: Avian myeloblastosis virus; test: Compound was evaluated as inhibitor of avian myeloblastosis virus (AMV) reverse transcriptase; assay type: functional, organism-based
[5] = target: T1, Human immunodeficiency virus type 1 reverse transcriptase; test: Compound was evaluated as inhibitor of recombinant HIV-l reverse transcriptase

| IC50 [3] | SMILES | IC50 [1] | also measured |
| --- | --- | --- | --- |
|  | Cc1cn(C2CC(N=[N+]=[N-])C(COP(=O)(O)C(F)F)O2)c(=O)[nH]c1=O (stereo not drawn) | 55.1 µM |  |
|  | Cc1cn(C2CC(N=[N+]=[N-])C(COP(=O)(O)C(F)(F)F)O2)c(=O)[nH]c1=O (stereo not drawn) | 30.1 µM |  |
|  | O=c1[nH]c(=O)n([C@H]2C[C@H](O)[C@@H](COP(=O)(O)C(F)(F)F)O2)cc1F | 47.6 µM |  |
|  | Cc1cn(C2CC(N=[N+]=[N-])C(COP(=O)(O)CF)O2)c(=O)[nH]c1=O (stereo not drawn) | 110 µM |  |
|  | Nc1ncnc2c1ncn2C1O[C@H](COP(=O)(O)C(F)F)[C@@H](O)[C@H]1O (stereo partly drawn) |  | IC50 [2]: > 1050 µM |
|  | O=c1ccn(C2O[C@H](COP(=O)(O)C(F)F)[C@@H](O)[C@H]2O)c(=O)[nH]1 (stereo partly drawn) |  | IC50 [2]: > 1120 µM |
| 150 µg/mL (≈ 378 µM) | Nc1nc(O)c2ncn(C3O[C@H](COP(=O)(O)C(F)F)[C@@H](O)[C@H]3O)c2n1 (stereo partly drawn) |  |  |
| 0.06 µg/mL | Cc1cn([C@H]2C[C@H](N=[N+]=[N-])[C@@H](CO[P@](=O)(O)O[P@](=O)(O)OP(=O)(O)O)O2)c(=O)[nH]c1=O [ZIDOVUDINE TRIPHOSPHATE] | 0.237 µM |  |
|  | Cc1cn([C@H]2C[C@H](N=[N+]=[N-])[C@@H](CO)O2)c(=O)[nH]c1=O [ZIDOVUDINE] |  | IC50 [4]: 600 µg/mL (≈ 2250 µM); IC50 [5]: 2990 µM |

| SMILES | IC50 [3] | IC50 [1] | also measured |
| --- | --- | --- | --- |
| Cc1cn([C@H]2C[C@H](N=[N+]=[N-])[C@@H](COP(=O)(O)O)O2)c(=O)[nH]c1=O [AZIDOTHYMIDINE MONOPHOSPHATE] | 900 µg/mL | > 2880 µM |  |
